How the values were obtained:
[1] = test system: barnyard grass; experiment: Test Example 5: herbicidal effect by foliage application, plastic box (Table 20, symbol H); type: in vivo, barnyard grass (Echinochloa crus-galli); details: foliage application; for herbicidal effect on barnyard grass (H): 320 g/ha, three weeks after application
How it was run: (§1)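 Plants sown in sterilized diluvial soil and grown 14 days in a greenhouse at 25° C to 30° C, then sprayed on the foliage with the compound's emulsion diluted in water to a predetermined herbicide amount. Injury to weeds and crops scored three weeks after application on a visual rating scale.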

[2] = test system: redroot pigweed; experiment: Test Example 4: herbicidal effect by soil treatment (Table 19, symbol N); type: in vivo, redroot pigweed (Amaranthus retroflexus); details: amount of applied herbicide 320 g/ha
How it was run: (§2)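 Three weeks of greenhouse growth at 25° C. to 30° C. followed a uniform surface spray of water-diluted emulsion at a predetermined herbicide amount. Seeds had been sown beforehand under about 1.5 cm of sterilized diluvial soil. Grading followed criteria set out in an earlier test.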

[3] = test system: late watergrass; experiment: Test Example 2: herbicidal activity, application during weed generation under submerged conditions (Table 17, symbol A); type: in vivo, late watergrass (Echinochloa oryzicola); details: AAH 320 g/ha; application during weed generation, submerged conditions
How it was run: (§3)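 Herbicide emulsion, diluted with water to the chosen amount, is applied onto 4 cm floodwater over alluvial soil where the weeds were co-sown and raised at 25–30° C. Application timing: 1–2 leaves. Assessment: three weeks afterwards.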

[4] = test system: blackgrass; experiment: Test Example 5: herbicidal effect by foliage application, plastic box (Table 20, symbol J); type: in vivo, blackgrass (Alopecurus myosuroides); details: foliage application; for herbicidal effect on blackgrass (J): 320 g/ha, three weeks after application
How it was run: as §1

[5] = test system: velvetleaf; experiment: Test Example 4: herbicidal effect by soil treatment (Table 19, symbol M); type: in vivo, velvetleaf (Abutilon theophrasti); details: amount of applied herbicide 320 g/ha
How it was run: as §2

[6] = test system: chickweed; experiment: Test Example 5: herbicidal effect by foliage application, plastic box (Table 20, symbol P); type: in vivo, common chickweed (Stellaria media); details: foliage application, AAH 320 g/ha, evaluated three weeks after application
How it was run: as §1

[7] = test system: oval-leafed pondweed; experiment: Test Example 2: herbicidal activity, application during weed generation under submerged conditions (Table 17, symbol C); type: in vivo, oval-leafed pondweed (Monochoria vaginalis); details: AAH 320 g/ha; application during weed generation, submerged conditions
How it was run: as §3

[8] = test system: Italian ryegrass; experiment: Test Example 5: herbicidal effect by foliage application, plastic box (Table 20, symbol K); type: in vivo, Italian ryegrass (Lolium multiflorum); details: foliage application; for herbicidal effect on Italian ryegrass (K): 320 g/ha, three weeks after application
How it was run: as §1

[9] = test system: southern crabgrass; experiment: Test Example 4: herbicidal effect by soil treatment (Table 19, symbol F); type: in vivo, southern crabgrass (Digitaria ciliaris); details: amount of applied herbicide 320 g/ha
How it was run: as §2

[10] = test system: rice flat sedge; experiment: Test Example 3: herbicidal effect by foliage application, Wagner pot (Table 18, symbol E); type: in vivo, rice flat sedge (Cyperus iria); details: amount of applied herbicide 320 g/ha
How it was run: (§4)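 Plants were sown in alluvial soil held under 0.1–0.5 cm standing water and grown 14 days in a greenhouse at 25–30 °C. An emulsifiable formulation, water-diluted to the set dose, was then sprayed onto the foliage, and effects were scored three weeks later using previously defined criteria.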

[11] = test system: Japanese bulrush; experiment: Test Example 1: herbicidal activity, application before weed generation under submerged conditions (Table 16, symbol B); type: in vivo, Japanese bulrush (Schoenoplectus juncoides); details: amount of applied herbicide 320 g/ha
How it was run: (§5)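 Emulsion formulation, water-diluted to set dose, was put onto the flooded surface (4 cm depth, alluvial soil) the same day weeds were sown and 2.5-leaf rice transplanted. After 3 weeks at 25-30 °C under glass, each species was rated 0 (≤5% kill) to 5 (≥90% kill).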

[12] = test system: oval-leafed pondweed; experiment: Test Example 1: herbicidal activity, application before weed generation under submerged conditions (Table 16, symbol C); type: in vivo, oval-leafed pondweed (Monochoria vaginalis); details: amount of applied herbicide 320 g/ha
How it was run: as §5

[13] = test system: blackgrass; experiment: Test Example 4: herbicidal effect by soil treatment (Table 19, symbol J); type: in vivo, blackgrass (Alopecurus myosuroides); details: amount of applied herbicide 320 g/ha
How it was run: as §2

[14] = test system: southern crabgrass; experiment: Test Example 5: herbicidal effect by foliage application, plastic box (Table 20, symbol F); type: in vivo, southern crabgrass (Digitaria ciliaris); details: foliage application; for herbicidal effect on southern crabgrass (F): 320 g/ha, three weeks after application
How it was run: as §1

[15] = test system: persian speedwell; experiment: Test Example 4: herbicidal effect by soil treatment (Table 19, symbol R); type: in vivo, Persian speedwell (Veronica persica); details: amount of applied herbicide 320 g/ha
How it was run: as §2

[16] = test system: barnyard grass; experiment: Test Example 3: herbicidal effect by foliage application, Wagner pot (Table 18, symbol H); type: in vivo, barnyard grass (Echinochloa crus-galli); details: amount of applied herbicide 320 g/ha
How it was run: as §4

[17] = AAH 320 g/ha, evaluated three weeks after application

Compound	herbicidal effect rating, A: late watergrass [3]	herbicidal effect rating, C: oval-leafed pondweed [7]	Herbicidal effect, B: Japanese bulrush [11]	Herbicidal effect, C: oval-leafed pondweed [12]	herbicidal effect on barnyard grass (H) [1]	N: redroot pigweed, herbicidal effect grade [2]	herbicidal effect on blackgrass (J) [4]	M: velvetleaf, herbicidal effect grade [5]	herbicidal effect on Italian ryegrass (K) [8]	F: southern crabgrass, herbicidal effect grade [9]	Herbicidal effect on E (rice flat sedge), foliage application [10]	J: blackgrass, herbicidal effect grade [13]	herbicidal effect on southern crabgrass (F) [14]	R: persian speedwell, herbicidal effect grade [15]	Herbicidal effect on H (barnyard grass), foliage application [16]	also measured
Cc1nn(C)c(=O)c(-c2c(-c3cnccc3C(F)(F)F)sc3ccc(F)cc23)c1O [2-387]	4 (Herbicidal rate of 70% or more and less than 90%)	4 (Herbicidal rate of 70% or more and less than 90%)	3 (Herbicidal rate of 40% or more and less than 70%)	0 (Herbicidal rate of 5% or less (almost no effect))												H: barnyard grass, herbicidal effect (criteria 0-5) [1, 17]: 5 (Herbicidal rate of 90% or more (almost completely withered)); herbicidal effect, N: redroot pigweed [2]: 5 (Herbicidal rate of 90% or more (almost completely withered)); J: blackgrass, herbicidal effect (criteria 0-5) [4, 17]: 4 (Herbicidal rate of 70% or more and less than 90%); herbicidal effect, M: velvetleaf [5]: 3 (Herbicidal rate of 40% or more and less than 70%); P: chickweed, herbicidal effect (criteria 0-5) [6]: 5 (Herbicidal rate of 90% or more (almost completely withered)); K: Italian ryegrass, herbicidal effect (criteria 0-5) [8, 17]: 4 (Herbicidal rate of 70% or more and less than 90%); herbicidal effect, F: southern crabgrass [9]: 3 (Herbicidal rate of 40% or more and less than 70%); herbicidal effect on E: rice flat sedge [10]: 5 (Herbicidal rate of 90% or more (almost completely withered)); herbicidal effect, J: blackgrass [13]: 0 (Herbicidal rate of 5% or less (almost no effect)); F: southern crabgrass, herbicidal effect (criteria 0-5) [14, 17]: 4 (Herbicidal rate of 70% or more and less than 90%); herbicidal effect, R: persian speedwell [15]: 5 (Herbicidal rate of 90% or more (almost completely withered)); herbicidal effect on H: barnyard grass [16]: 5 (Herbicidal rate of 90% or more (almost completely withered))
Cc1ccc2oc(-c3ccc4c(c3)OCCO4)c(-c3c(O)c(C)nn(C)c3=O)c2c1 [9-012]	1 (Herbicidal rate of 5% or more and less than 20%)	5 (Herbicidal rate of 90% or more (almost completely withered))	5 (Herbicidal rate of 90% or more (almost completely withered))	5 (Herbicidal rate of 90% or more (almost completely withered))	3 (Herbicidal rate of 40% or more and less than 70%)	3 (Herbicidal rate of 40% or more and less than 70%)	0 (Herbicidal rate of 5% or less (almost no effect))	2 (Herbicidal rate of 20% or more and less than 40%)	5 (Herbicidal rate of 90% or more (almost completely withered))	2 (Herbicidal rate of 20% or more and less than 40%)	5 (Herbicidal rate of 90% or more (almost completely withered))	0 (Herbicidal rate of 5% or less (almost no effect))	3 (Herbicidal rate of 40% or more and less than 70%)	4 (Herbicidal rate of 70% or more and less than 90%)	4 (Herbicidal rate of 70% or more and less than 90%)	
CCCC(=O)Oc1c(C)nn(C)c(=O)c1-c1c(-c2ccc3c(c2)OCCO3)oc2ccc(C)cc12 [9-013]	0 (Herbicidal rate of 5% or less (almost no effect))	5 (Herbicidal rate of 90% or more (almost completely withered))	4 (Herbicidal rate of 70% or more and less than 90%)	4 (Herbicidal rate of 70% or more and less than 90%)	0 (Herbicidal rate of 5% or less (almost no effect))	3 (Herbicidal rate of 40% or more and less than 70%)	0 (Herbicidal rate of 5% or less (almost no effect))	2 (Herbicidal rate of 20% or more and less than 40%)	2 (Herbicidal rate of 20% or more and less than 40%)	4 (Herbicidal rate of 70% or more and less than 90%)	3 (Herbicidal rate of 40% or more and less than 70%)	0 (Herbicidal rate of 5% or less (almost no effect))	0 (Herbicidal rate of 5% or less (almost no effect))	0 (Herbicidal rate of 5% or less (almost no effect))	1 (Herbicidal rate of 5% or more and less than 20%)	
COCCOc1ccc(-c2oc3ccccc3c2-c2c(O)c(C)nn(C)c2=O)cc1 [Compound No. 8-007, 5-hydroxy-4-(2-(4-(2-methoxyethoxy)phenyl)benzofuran-3-yl)-2,6-dimethylpyridazin-3-(2H)-one]	5 (Herbicidal rate of 90% or more (almost completely withered))	3 (Herbicidal rate of 40% or more and less than 70%)	5 (Herbicidal rate of 90% or more (almost completely withered))	4 (Herbicidal rate of 70% or more and less than 90%)	5 (Herbicidal rate of 90% or more (almost completely withered))	5 (Herbicidal rate of 90% or more (almost completely withered))	5 (Herbicidal rate of 90% or more (almost completely withered))	3 (Herbicidal rate of 40% or more and less than 70%)	5 (Herbicidal rate of 90% or more (almost completely withered))	5 (Herbicidal rate of 90% or more (almost completely withered))	5 (Herbicidal rate of 90% or more (almost completely withered))	3 (Herbicidal rate of 40% or more and less than 70%)	5 (Herbicidal rate of 90% or more (almost completely withered))	2 (Herbicidal rate of 20% or more and less than 40%)	5 (Herbicidal rate of 90% or more (almost completely withered))	
COc1ccc(-c2oc3ccc(F)cc3c2-c2c(O)c(C)nn(C)c2=O)cc1 [Compound No. 9-020, 4-(5-fluoro-2-(4-methoxyphenyl)benzofuran-3-yl)-5-hydroxy-2,6-dimethylpyridazin-3(2H)-one]	3 (Herbicidal rate of 40% or more and less than 70%)	3 (Herbicidal rate of 40% or more and less than 70%)	5 (Herbicidal rate of 90% or more (almost completely withered))	5 (Herbicidal rate of 90% or more (almost completely withered))	5 (Herbicidal rate of 90% or more (almost completely withered))	5 (Herbicidal rate of 90% or more (almost completely withered))	4 (Herbicidal rate of 70% or more and less than 90%)	2 (Herbicidal rate of 20% or more and less than 40%)	4 (Herbicidal rate of 70% or more and less than 90%)	4 (Herbicidal rate of 70% or more and less than 90%)	5 (Herbicidal rate of 90% or more (almost completely withered))	3 (Herbicidal rate of 40% or more and less than 70%)	4 (Herbicidal rate of 70% or more and less than 90%)	5 (Herbicidal rate of 90% or more (almost completely withered))	5 (Herbicidal rate of 90% or more (almost completely withered))	

Source: patent publication US20230085307A1, “PYRIDAZINONE COMPOUND AND HERBICIDE” (NISSAN CHEMICAL CORPORATION, priority 2019, published 2023)
